Measurements taken from US20260132123A1, “ABAD INHIBITOR COMPOUNDS” (UNIVERSITY COURT OF THE UNIVERSITY OF ST ANDREWS, priority 2021, published 2026).

Target: T1, 17β-HSD10 (Homo sapiens, UniProt Q99714)
T1 construct: Histev (histidine tag with TEV site) (N, cleaved yes); made in house; host or cells: E. coli BL21-CodonPlus
T1 sequence (Q99714 1-261): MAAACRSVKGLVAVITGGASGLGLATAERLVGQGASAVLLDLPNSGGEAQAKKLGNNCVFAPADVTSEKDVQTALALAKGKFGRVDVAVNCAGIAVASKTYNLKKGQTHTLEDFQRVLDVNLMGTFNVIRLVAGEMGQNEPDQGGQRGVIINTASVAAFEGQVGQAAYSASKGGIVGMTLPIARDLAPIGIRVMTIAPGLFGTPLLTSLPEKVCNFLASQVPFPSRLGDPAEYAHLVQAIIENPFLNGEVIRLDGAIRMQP
Test: 17β-HSD10 (ABAD) enzyme inhibition assay, NADH oxidation read at 340 nm (primary screen and dose response)
Type: biochemical
Conditions: for EC50 / Max. Effect (%) / Hill Slope / Max. Fit / Min. Fit: recombinant 17βHSD10 enzyme assay; for Hill Slope / Max. Fit / Min. Fit: curve fit
Summary of the method: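 Screening used a 35 min room-temperature endpoint A340 read after compound (10 μM) and enzyme (2.5 nM, E. coli-expressed, His-tag removed) preincubated 15 min, then 100 μM NADH plus acetoacetyl-CoA added. Dose-response runs tracked absorbance kinetically 45 min; buffer pH 7.4 Tris with BSA, DTT.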

SMILES | EC50 | Max. Effect (%) | Hill Slope | Max. Fit | Min. Fit | ABAD plC50 (primary screening, resynthesized HTS hit compounds) | 17β-HSD10 / ABAD activity in words (SAR discussion)
O=C(c1ncn[nH]1)N1CCC[C@H]1c1ccccc1 [S1−T3, 5-{[(2S)-2-phenylpyrrolidin-1-yl]carbonyl}-1H-1,2,4-triazole] | > 20000 nM | 7.1% |  |  |  |  | 
COc1cccc(-c2ccccc2[C@@H]2CCCN2C(=O)c2nc[nH]n2)c1 (racemic) [ESC1002599] | > 20000 nM | 10% |  |  |  |  | 
CC(C)CN(C(=O)c1ccccc1F)c1cncc(N(C)Cc2c[nH]cn2)c1 [ESC1002802] | > 20000 nM | 20% |  |  |  |  | 
CCOc1cccc(-c2ccccc2[C@@H]2CCCN2C(=O)c2sccc2Cl)c1 (racemic) [ESC1002664] | 417 nM | 92% | 1.2 | 92 | 0 |  | 
COc1cc(OC)cc(-c2ccccc2[C@@H]2CCCN2C(=O)c2sccc2Cl)c1 (racemic) [ESC1002662] | 603 nM | 92% | 1.2 | 92 | −1 |  | 
Cc1ccsc1C(=O)N1CCC[C@@H]1c1ccccc1-c1cnn(C)c1 [ESC1002424] | 933 nM | 96% | 1.3 | 96 | 2 |  | 
O=C(c1[nH]ncc1Cl)N1CCC[C@H]1c1ccccn1 [S1−T17, 2-[(2S)-1-[(4-chloro-1H-pyrazol-5-yl)carbonyl]pyrrolidin-2-yl]pyridine] | > 20000 nM | 17.5% |  |  |  |  | 
Cc1ccsc1C(=O)N1CCC[C@H]1c1ccccc1-c1ccccc1Cl (single isomer, unassigned) [ESC1002766] | > 20000 nM | 14% |  |  |  |  | 
CC(C)CN(C(=O)c1ccccc1F)c1cccc(N(CCO)Cc2c[nH]cn2)c1 [ESC1002723] | 5130 nM | 81% | 1.1 | 94 | 0 |  | 
COc1cccc(-c2ccccc2[C@@H]2CCCN2C(=O)c2ncc[nH]2)c1 (racemic) [ESC1002600] | 4370 nM | 75% | 1.2 | 86 | 1 |  | 
COc1cccc(-c2ccccc2[C@H]2CCCN2C(=O)Cc2ccccc2)c1 [ESC1002506] | > 20000 nM | 8% |  |  |  |  | 
Cc1ccsc1C(=O)N1CCC[C@@H]1c1ccccc1-c1c[nH]nc1C [ESC1002464] | 2040 nM | 84% | 1.1 | 91 | −5 |  | 
COc1cccc(-c2ccccc2[C@H]2CCCN2C(=O)c2sccc2F)c1 [ESC1002431] | 977 nM | 96% | 1.5 | 95 | 1 |  | 
O=C(c1sccc1Cl)N1CCC[C@H]1c1ccccc1-c1cccc(O)c1F (single isomer, unassigned) [ESC1002840] | 170 nM | 98% | 1.1 | 97 | −4 |  | 
O=C(c1ncc[nH]1)N1CCC[C@H]1c1ccccc1 [S1−T2, 2-{[(2S)-2-phenylpyrrolidin-1-yl]carbonyl}-1H-imidazole] | > 20000 nM | 6.4% |  |  |  |  | 
CCN(C(=O)C1CCOCC1)c1cccc(N(C)Cc2cnc[nH]2)c1 [S2−T6, N-ethyl-N-[3-[1H-imidazol-5-ylmethyl(methyl)amino]phenyl]tetrahydropyran-4-carboxamide] | > 20000 nM | 18.4% |  |  |  |  | 
COc1cccc(-c2ccccc2[C@@H]2CCCN2C(=O)c2[nH]ncc2Cl)c1 (single isomer, unassigned) [ESC1002756] | > 20000 nM | 24% |  |  |  |  | 
CN(Cc1cnc[nH]1)c1cccc(NC(=O)c2ccccc2F)c1 [ESC1002056, 2-fluoro-N-[3-[1H-imidazol-5-ylmethyl(methyl)amino]phenyl]benzamide] | > 20000 nM | 4% |  |  |  |  | 
CC(C)CN(C(=O)c1ccc(Cl)cc1F)c1cccc(N(C)Cc2cnc[nH]2)c1 [ESC1002042, 4-chloro-2-fluoro-N-[3-[1H-imidazol-5-ylmethyl(methyl)amino]phenyl]-N-isobutyl-benzamide] | 316 nM | 98% | 0.8 | 101 | −6 | 6.5 | 
O=C(c1sccc1Cl)N1CCC[C@H]1c1ccccc1-c1ccc(O)cc1 (racemic) [ESC1002696] | 302 nM | 97% | 1.2 | 97 | 1 |  | 

SMILES | EC50 | Max. Effect (%) | Hill Slope | Max. Fit | Min. Fit | ABAD plC50 (primary screening, resynthesized HTS hit compounds) | 17β-HSD10 / ABAD activity in words (SAR discussion)
CC(C)CN(C(=O)c1ccc[nH]c1=O)c1cccc(N(C)Cc2c[nH]cn2)c1 [ESC1002614, N-[3-[1H-imidazol-4-ylmethyl(methyl)amino]phenyl]-N-isobutyl-2-oxo-1H-pyridine-3-carboxamide] | > 20000 nM | 30% |  |  |  |  | 
O=C(c1sccc1Cl)N1CCC[C@H]1c1ccccc1-c1ccnc(O)c1 (racemic) [ESC1002697] | > 20000 nM | 43% |  |  |  |  | less active
O=C(c1sccc1Cl)N1CCC[C@H]1c1ccccc1-c1cc(O)cc(F)c1 (single isomer, unassigned) [ESC1002801] | 51.3 nM | 100% | 1.2 | 96 | −1 |  | 
O=C(c1sccc1Cl)N1CCCC1c1ccccc1-c1cccc(O)c1 (racemic) [ESC1002666, (3-chlorothiophen-2-yl)(2-(3′-hydroxy-[1,1′-biphenyl]-2-yl)pyrrolidin-1-yl)methanone] | 58.9 nM | 99% | 1.1 | 98 | 0 |  | 
Cc1ccsc1C(=O)N1CCC[C@@H]1c1ccccc1-c1c[nH]nc1C(F)(F)F [ESC1002465] | 1510 nM | 87% | 1.2 | 90 | −2 |  | 
CC(=O)CN(CC(C)=O)c1cccc(N(CC(C)C)C(=O)c2ccccc2F)c1 [ESC1002724] | > 20000 nM | −3% |  |  |  |  | 
O=C(c1ncco1)N1CCC[C@H]1c1ccccc1 [S1−T9, 2-{[(2S)-2-phenylpyrrolidin-1-yl]carbonyl}-1,3-oxazole] | > 20000 nM | 26.6% |  |  |  |  | 
COc1cccc(-c2ccccc2[C@H]2CCCN2C(=O)c2ccc(C)s2)c1 [ESC1002426] | > 20000 nM | 22% |  |  |  |  | 
O=C(c1sccc1Cl)N1CCC[C@H]1c1ccccc1-c1cccc2[nH]ncc12 (racemic) [ESC1002702] | 1260 nM | 91% | 0.91 | 98 | −9 |  | less active
COc1cccc(-c2ccccc2[C@@H]2CCCN2C(=O)c2nccn2C)c1 (racemic) [ESC1002661] | > 20000 nM | 7% |  |  |  |  | 
Cc1ccsc1C(=O)N1CCC[C@@H]1c1ccccc1-c1cnn(CCO)c1 [ESC1002463] | 3470 nM | 87% | 0.79 | 110 | −6 |  | 
COc1cccc(-c2ccccc2[C@H]2CCCN2C(=O)c2cc(C)cs2)c1 [ESC1002428] | > 20000 nM | 16% |  |  |  |  | 
CC(C)CN(C(=O)c1ccc(C(F)(F)F)cc1F)c1cccc(N(C)Cc2c[nH]cn2)c1 [ESC1002455, 2-fluoro-N-[3-[1H-imidazol-4-ylmethyl(methyl)amino]phenyl]-N-isobutyl-4-(trifluoromethyl)benzamide] | 1260 nM | 92% | 0.99 | 97 | −7 |  | 
Cc1ccsc1C(=O)N1CCC[C@H]1c1ccccc1-c1cccc(C(F)(F)F)c1 (single isomer, unassigned) [ESC1002789] | > 20000 nM |  |  |  |  |  | 
Cc1ccc(C(=O)N(CC2CC2)c2cccc(N(C)Cc3c[nH]cn3)c2)cc1 [ESC1002399, N-(cyclopropylmethyl)-N-[3-[1H-imidazol-4-ylmethyl(methyl)amino]phenyl]-4-methyl-benzamide] | 1000 nM | 95% | 1.1 | 99 | 2 |  | 
COc1cccc(-c2ccccc2[C@@H]2CCCN2C(=O)C23CC(C2)C3)c1 (racemic) [ESC1002602] | > 20000 nM | 43% |  |  |  |  | 
CC(C)CN(C(=O)c1ccccc1F)c1cccc(NCC(N)=O)c1 [ESC1002571] | > 20000 nM | 13% |  |  |  |  | 
O=C(c1sccc1Cl)N1CCC[C@H]1c1ccccc1-c1ccc(F)c(O)c1 (single isomer, unassigned) [ESC1002838] | 51.3 nM | 99% | 1.2 | 97 | 0 |  | 
CC(C)CN(C(=O)c1ccccc1F)c1cccc(NCc2c[nH]cn2)c1 [ESC1002631] | 9330 nM | 64% | 0.94 | 100 | −6 |  | 
Cc1ccsc1C(=O)N1CCC[C@@H]1c1ccccc1-c1ccc(F)cc1 [ESC1002423] | 380 nM | 96% | 2.3 | 93 | 9 |  | 
